Measured values as given in ChEMBL document CHEMBL5512605, “Targeted regulated cell death with small molecule compounds in colorectal cancer: Current perspectives of targeted therapy and molecular mechanisms” (Eur J Med Chem, 2024).
Values belong to the compound of their own block, whether it stands above or below them.

Experiments:
SW480 [1] = assay: Antiproliferative activity against human SW480 cells measured upto 72 hrs by CCK-8 method; format: functional
HCT-116 [2] = assay: Antiproliferative activity against human HCT-116 cells measured upto 72 hrs by CCK-8 method; format: functional
LoVo [3] = assay: Antiproliferative activity against human LoVo cells measured upto 72 hrs by CCK-8 method; format: functional
HCT-116 [4] = assay: Cytotoxicity against human HCT-116 cells assessed as inhibition of cell growth incubated for 24 hrs by MTT assay; format: functional
HCT-116 [5] = assay: Antiproliferative activity against human HCT-116 cells expressing wild type p53 measured after 48 hrs by MTT assay; format: functional, cell-based; conditions: HCT-116, 48 h
HCT-116 [6] = assay: Antiproliferative activity against human HCT-116 cells; format: functional, cell-based
HCT-116 [7] = assay: Antiproliferative activity against human HCT-116 cells assessed as inhibition of cell growth measured after 24 hrs by CellTiter 96 Aqueous One Solution Cell Proliferation Assay; format: functional, cell-based; conditions: HCT-116, 24 h
SW480 [8] = assay: Antiproliferative activity against human SW480 cells assessed as inhibition of cell growth measured after 24 hrs by CellTiter 96 Aqueous One Solution Cell Proliferation Assay; format: functional, cell-based; conditions: SW480, 24 h
SW-620 [9] = assay: Antiproliferative activity against human SW620 cells measured upto 60 hrs by MTS assay; format: functional
HT-29 [10] = assay: Antiproliferative activity against human HT-29 cells assessed as inhibition of cell growth measured after 48 hrs by CCK-8 method; format: functional, cell-based; conditions: HT-29, 48 h
HCT-116 [11] = assay: Antiproliferative activity against human HCT-116 cells assessed as inhibition of cell growth measured after 48 hrs by CCK-8 method; format: functional, cell-based; conditions: HCT-116, 48 h
DLD-1 = assay: Antiproliferative activity against human DLD-1 cells assessed as inhibition of cell growth measured after 48 hrs by CCK-8 method; format: functional, cell-based; conditions: DLD-1, 48 h
SW-620 [12] = assay: Antiproliferative activity against human SW620 cells assessed as inhibition of cell growth measured after 48 hrs by CCK-8 method; format: functional, cell-based; conditions: SW-620, 48 h
SW480 [13] = assay: Antiproliferative activity against human SW480 cells assessed as inhibition of cell growth measured after 48 hrs by CCK-8 method; format: functional, cell-based; conditions: SW480, 48 h
SW480 [14] = assay: Antiproliferative activity against human SW480 cells; format: functional, cell-based
CT26 = assay: Antiproliferative activity against mouse CT26 cells assessed as inhibition of cell viability; format: functional, cell-based
HCT-116 [15] = assay: Antiproliferative activity against human HCT-116 cells assessed as inhibition of cell viability; format: functional, cell-based
SW-620 [16] = assay: Cytotoxicity against human SW620 cells; format: functional, cell-based; conditions: Homo sapiens, SW-620
HCT-116 [17] = assay: Cytotoxicity against human HCT-116 cells; format: functional, cell-based; conditions: Homo sapiens, HCT-116
LoVo [18] = assay: Antiproliferative activity in human LoVo cells incubated for 72 hrs by MTT assay; format: functional, cell-based
HCT-116 [19] = assay: Antiproliferative activity against human HCT-116 cells assessed as inhibition of cell growth; format: functional, cell-based
SW-620 [20] = assay: Antiproliferative activity against human SW620 cells assessed as inhibition of cell growth; format: functional, cell-based
HT-29 [21] = assay: Antiproliferative activity in human HT-29 cells incubated for 48 hrs by MTT assay; format: functional, cell-based; conditions: HT-29, 48 h
HCT-116 [22] = assay: Cytotoxicity against human HCT-116 cells measured after 24 hrs by MTT assay; format: functional, cell-based; conditions: HCT-116, 24 h
HT-29 [23] = assay: Cytotoxicity against human HT-29 cells measured after 24 hrs by MTT assay; format: functional, cell-based; conditions: HT-29, 24 h
HCT-116 [24] = assay: Antiproliferative activity against human HCT-116 cells incubated for 24 hrs by MTT assay; format: functional
HT-29 [25] = assay: Cytotoxicity against human HT-29 cells; format: functional, cell-based
COLO 205 = assay: Cytotoxicity against human COLO 205 cells; format: functional, cell-based
KM12 = assay: Cytotoxicity against human KM12 cells; format: functional, cell-based
HT-29 [26] = assay: Antiproliferative activity against human HT-29 cells incubated for 48 hrs by MTT assay; format: functional, cell-based; conditions: HT-29, 48 h
HCT-116 [27] = assay: Antiproliferative activity against human HCT-116 cells incubated for 48 hrs by MTT assay; format: functional, cell-based; conditions: HCT-116, 48 h
HT-29 [28] = assay: Induction of cell cycle arrest in human HT-29 cells measured after 24 to 48 hrs by PI staining based flow cytometry analysis; format: functional

SMILES: C[C@H]1[C@H](C)CC[C@]2(C(=O)O[C@@H]3O[C@H](CO[C@@H]4O[C@H](CO)[C@@H](O[C@@H]5O[C@@H](C)[C@H](O)[C@@H](O)[C@H]5O)[C@H](O)[C@H]4O)[C@@H](O)[C@H](O)[C@H]3O)CC[C@]3(C)C(=CC[C@@H]4[C@@]5(C)C[C@@H](O)[C@H](O)[C@@](C)(CO)[C@@H]5CC[C@]43C)[C@H]12
IC (SW480 [1]): 2 µM
IC (HCT-116 [2]): 2 µM
IC (LoVo [3]): 2 µM

SMILES: NCCCNCCCCNCCCN1C(=O)c2ccc3c4c(ccc(c24)C1=O)C(=O)N(CCCNCCCCNCCCN)C3=O
IC (HCT-116 [4]): 1 µM

IC50 (HCT-116 [5]): 0.97 µM
SMILES: Cc1c(CO)c(CO)c2n1[C@H](c1ccccc1)SC2

IC50 (HCT-116 [6]; Homo sapiens, HCT-116): 24.5 µM
SMILES: COc1cc(C[C@@H](CO[C@@H]2O[C@H](CO)[C@@H](O)[C@H](O)[C@H]2O)[C@H](CO[C@@H]2O[C@H](CO)[C@@H](O)[C@H](O)[C@H]2O)Cc2ccc(O)c(OC)c2)ccc1O

IC50 (HCT-116 [7]): 10.8 µM
IC50 (SW480 [8]): 11.3 µM
SMILES: C[C@@H]1CC[C@]2(C(=O)O)CC[C@]3(C)C(=CC[C@@H]4[C@@]5(C)CC[C@H](O[C@@H]6OC[C@H](O)[C@H](O)[C@H]6O)C(C)(C)[C@@H]5CC[C@]43C)[C@@H]2[C@]1(C)O

SMILES: COc1cc2c(=O)oc3c(OC)c(O)cc4c(=O)oc(c1OC)c2c34
IC (SW-620 [9]): 15 µM

IC50 (HT-29 [10]): 9.58 µM
IC50 (HCT-116 [11]): 8.15 µM
IC50 (DLD-1): 10.8 µM
IC50 (SW-620 [12]): 10.5 µM
IC50 (SW480 [13]): 15.3 µM
SMILES: CCc1ccc2c3[nH]c4ccccc4c3cc[n+]2c1

SMILES: O=C1C2C3C=CC(C4CC34)C2C(=O)N1c1ccc(Cc2ccncc2)cc1 (stereo not drawn)
IC (SW480 [14]): 10 µM
IC (HCT-116 [6]): 10 µM

SMILES: C/C=C1/CN(C)[C@H]2Cc3c([nH]c4ccccc34)[C@H](c3cc4[nH]c5c(c4cc3OC)CCN3C[C@@H]4C[C@H](CC)[C@H]3[C@@]5(C(=O)OC)C4)C[C@@H]1C2C(=O)OC (stereo partly drawn)
IC50 (CT26): 1.38 µM
IC50 (HCT-116 [15]): 4.1 µM

SMILES: C=CC(=O)Nc1ccccc1Nc1nc(Nc2ccc(CN3CCC(C(=O)NO)CC3)cc2)ncc1Cl
IC50 (SW-620 [16]): 0.309 µM
IC50 (HCT-116 [17]): 0.134 µM

IC50 (LoVo [18]): 1 µM
SMILES: O=C1/C(=C/c2ccccc2Br)CSC/C1=C\c1ccccc1Br

SMILES: COC(=O)[C@H](C)NC(=O)N[C@]1(C)CC[C@]2(C)CC[C@]3(C)C4=CC=C5C(=CC(=O)C(O)=C5C)[C@]4(C)CC[C@@]3(C)[C@@H]2C1
IC50 (HCT-116 [19]): 0.28 µM
IC50 (SW-620 [20]): 0.28 µM

IC50 (HT-29 [21]): 23.4 µM
SMILES: C=CCCCOc1cc(O)c2c(c1)OC(c1ccc(O)cc1)CC2=O (stereo not drawn)

SMILES: C[C@@H]1CC[C@@]2(OC1)O[C@H]1C[C@H]3[C@]4(C)CC=C5C[C@@H](O[C@@H]6O[C@H](CO)[C@@H](O[C@@H]7O[C@@H](C)[C@H](O[C@@H]8O[C@@H](C)[C@H](O)[C@@H](O)[C@@H]8O)[C@@H](O)[C@H]7O)[C@H](O)[C@H]6O[C@@H]6O[C@@H](C)C(O)[C@@H](O)[C@H]6O)CC[C@]5(C)[C@H]4CC[C@]3(C)[C@H]1[C@@H]2C (stereo partly drawn)
IC50 (HCT-116 [22]): 3.73 µM
IC50 (HT-29 [23]): 1.89 µM

SMILES: COc1ccccc1[C@@H](NS(=O)(=O)c1ccc2[nH]c(=O)ccc2c1)C(=O)N(Cc1ccco1)Cc1cccs1
IC (HCT-116 [24]): 20 µM

SMILES: c1ccc(-c2ccc(-c3csc(N/N=C4\CCc5ccccc54)n3)cc2)cc1
IC50 (HT-29 [25]): 0.44 µM
IC50 (COLO 205): 0.98 µM
IC50 (KM12): 0.41 µM

IC50 (HT-29 [26]): 18.8 µM
IC50 (HCT-116 [27]): 32 µM
SMILES: O=c1cc(-c2ccc(Oc3c(-c4ccc(O)cc4)oc4cc(O)cc(O)c4c3=O)cc2)oc2cc(O)cc(O)c12

IC50 (HT-29 [28]): 60 µM
SMILES: N#CC1=C(N)Oc2ccc3ccccc3c2C1c1ccc(F)cc1 (stereo not drawn)
